Experimental data: PubChem BioAssay AID328 (DTP/NCI, 2004)
Inconclusive results and toxic doses are left out. The calls were made as follows: active = survival T/C of 150% or more; inactive = T/C below 125% in these data.

Tested on: BDF1 mice, P388 leukemia ip, median survival T/C
Assay: NCI In Vivo Anticancer Drug Screen. Data for tumor model P388 Leukemia (intraperitoneal) in B6D2F1 (BDF1) mice
Details: endpoint: median survival time, higher = longer survival
In short: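 Antitumour effect was judged in vivo: survival in drug-treated mice, normalised to that of vehicle-dosed controls, gives the reported T/C.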

[1] = dose: 100.0 mg/kg/injection, schedule: Q04DX003 (ip), vehicle: saline
[2] = dose: 100.0 mg/kg/injection, schedule: Q04DX003 (ip), vehicle: saline with Tween-80
[3] = dose: 200.0 mg/kg/injection, schedule: Q04DX003 (ip), vehicle: saline with Tween-80
[4] = dose: 400.0 mg/kg/injection, schedule: Q04DX003 (ip), vehicle: saline with Tween-80
[5] = dose: 100.0 mg/kg/injection, schedule: Q04DX003 (ip), vehicle: saline sonified
[6] = dose: 200.0 mg/kg/injection, schedule: Q04DX003 (ip), vehicle: saline sonified
[7] = dose: 400.0 mg/kg/injection, schedule: Q04DX003 (ip), vehicle: saline sonified
[8] = dose: 100.0 mg/kg/injection, schedule: Q01DX009 (ip), vehicle: saline with Tween-80
[9] = dose: 200.0 mg/kg/injection, schedule: Q01DX009 (ip), vehicle: saline with Tween-80
[10] = dose: 100.0 mg/kg/injection, schedule: Q01DX009 (ip), vehicle: Klucel (hydroxypropylcellulose) (HPC)
[11] = dose: 100.0 mg/kg/injection, schedule: Q04DX003 (ip), vehicle: Klucel (hydroxypropylcellulose) (HPC)
[12] = dose: 200.0 mg/kg/injection, schedule: Q01DX009 (ip), vehicle: Klucel (hydroxypropylcellulose) (HPC)
[13] = dose: 200.0 mg/kg/injection, schedule: Q04DX003 (ip), vehicle: Klucel (hydroxypropylcellulose) (HPC)
[14] = dose: 400.0 mg/kg/injection, schedule: Q01DX009 (ip), vehicle: Klucel (hydroxypropylcellulose) (HPC)
[15] = dose: 400.0 mg/kg/injection, schedule: Q04DX003 (ip), vehicle: Klucel (hydroxypropylcellulose) (HPC)

Measured: T/C

CCCCN(C)c1ncnc2[nH]ncc12
inactive: dose: 25.0 mg/kg/injection, schedule: Q01DX009 (ip), vehicle: saline 100 % of control | dose: 25.0 mg/kg/injection, schedule: Q04DX003 (ip), vehicle: saline 95 % of control | dose: 50.0 mg/kg/injection, schedule: Q01DX009 (ip), vehicle: saline 109 % of control | dose: 50.0 mg/kg/injection, schedule: Q04DX003 (ip), vehicle: saline 95 % of control | [1] 91 % of control

C=C(C)C1CC=C(/C=N/O)CC1 (configuration not stated)
inactive: [2] 100 % of control | [3] 100 % of control | [4] 95 % of control

O=[N+]([O-])c1ccc(S(=O)(=O)OCc2cccc(OS(=O)(=O)c3ccc([N+](=O)[O-])cc3)c2)cc1
inactive: [5] 105 % of control | [6] 116 % of control | [7] 105 % of control

CCNS(=O)(=O)c1ncnc2nc[nH]c12
inactive: [8] 100 % of control | [2] 104 % of control | [9] 100 % of control | [3] 100 % of control | dose: 400.0 mg/kg/injection, schedule: Q01DX009 (ip), vehicle: saline with Tween-80 100 % of control | [4] 100 % of control

O=[N+]([O-])c1ccc2c3c(cccc13)-c1ccccc1-2
inactive: [10] 110 % of control | [11] 90 % of control | [12] 105 % of control | [13] 95 % of control | [14] 100 % of control | [15] 100 % of control

CN1OCC2CCCC(c3ccccc3)C21 (configuration not stated)
inactive: dose: 50.0 mg/kg/injection, schedule: Q04DX003 (ip), vehicle: Klucel (hydroxypropylcellulose) (HPC) 100 % of control | [11] 100 % of control | [13] 100 % of control

CCc1ccc(OS(=O)(=O)c2ccccc2[N+](=O)[O-])cc1
inactive: [5] 100 % of control | [6] 100 % of control | [7] 100 % of control

CC([CH2][Hg][Cl])c1ccccc1 (configuration not stated)
inactive: dose: 3.13 mg/kg/injection, schedule: Q01DX009 (ip), vehicle: saline with Tween-80 122 % of control | dose: 4.16 mg/kg/injection, schedule: Q01DX009 (ip), vehicle: saline with Tween-80 118 % of control | dose: 6.25 mg/kg/injection, schedule: Q01DX009 (ip), vehicle: saline with Tween-80 113 % of control | dose: 9.38 mg/kg/injection, schedule: Q01DX009 (ip), vehicle: saline with Tween-80 109 % of control | dose: 12.5 mg/kg/injection, schedule: Q01DX009 (ip), vehicle: saline with Tween-80 109 % of control

S=C1SCCS1
inactive: dose: 25.0 mg/kg/injection, schedule: Q01DX009 (ip), vehicle: saline with Tween-80 100 % of control | dose: 50.0 mg/kg/injection, schedule: Q01DX009 (ip), vehicle: saline with Tween-80 95 % of control | [8] 104 % of control | [1] 91 % of control

N#Cc1cnn2c(=O)[nH]cnc12
inactive: dose: 50.0 mg/kg/injection, schedule: Q01DX009 (ip), vehicle: other 100 % of control | dose: 100.0 mg/kg/injection, schedule: Q01DX009 (ip), vehicle: other 100 % of control | [1] 100 % of control | dose: 200.0 mg/kg/injection, schedule: Q01DX009 (ip), vehicle: other 100 % of control | dose: 200.0 mg/kg/injection, schedule: Q04DX003 (ip), vehicle: saline 100 % of control | dose: 400.0 mg/kg/injection, schedule: Q04DX003 (ip), vehicle: saline 118 % of control

CCCOC(=O)C1(N)CCCC1
inactive: [8] 100 % of control | [9] 90 % of control

COC(=O)CCCNC(=O)/C=C1/c2cc(OC)c(OC)cc2CCC1S(=O)(=O)OC (configuration not stated)
inactive: dose: 100.0 mg/kg/injection, schedule: Q01DX009 (ip), vehicle: saline 104 % of control | dose: 200.0 mg/kg/injection, schedule: Q01DX009 (ip), vehicle: saline 90 % of control | dose: 400.0 mg/kg/injection, schedule: Q01DX009 (ip), vehicle: saline 100 % of control

CC1(C)CC(C)(OC(=O)c2ccccc2)[N+]([O-])=N1 (configuration not stated)
inactive: dose: 25.0 mg/kg/injection, schedule: Q01DX005 (ip), vehicle: other 108 % of control | dose: 50.0 mg/kg/injection, schedule: Q01DX005 (ip), vehicle: other 117 % of control | dose: 100.0 mg/kg/injection, schedule: Q01DX005 (ip), vehicle: other 99 % of control | dose: 200.0 mg/kg/injection, schedule: Q01DX005 (ip), vehicle: other 101 % of control | dose: 400.0 mg/kg/injection, schedule: Q01DX005 (ip), vehicle: other 108 % of control

COc1cc(N(CCCl)CCCl)ccc1/C=N\NC(=O)c1cccnc1
inactive: dose: 25.0 mg/kg/injection, schedule: Q01DX009 (ip), vehicle: Klucel (hydroxypropylcellulose) (HPC) 98 % of control | dose: 50.0 mg/kg/injection, schedule: Q01DX009 (ip), vehicle: Klucel (hydroxypropylcellulose) (HPC) 97 % of control | [10] 112 % of control

CN(C)c1ccc(/C=C/C2CC[N-]C3C(O)CCCC23)cc1.CN(C)c1ccc(/C=C/C2CC[N-]C3C(O)CCCC23)cc1.CN(C)c1ccc(/C=C/C2CC[N-]C3C(O)CCCC23)cc1.[Fe+3] (configuration not stated)
inactive: dose: 100.0 mg/kg/injection, schedule: Q04DX002 (ip), vehicle: saline with Tween-80 110 % of control | dose: 200.0 mg/kg/injection, schedule: Q04DX002 (ip), vehicle: saline with Tween-80 122 % of control

CCC(=O)OC1CC2(C)C(=CC1=O)CCC1C2CCC2(C)C(OC(=O)CC)CCC12 (configuration not stated)
inactive: dose: 100.0 mg/kg/injection, schedule: Q01DX001 (ip), vehicle: Klucel (hydroxypropylcellulose) (HPC) 90 % of control | [10] 104 % of control | [11] 108 % of control | dose: 200.0 mg/kg/injection, schedule: Q01DX001 (ip), vehicle: Klucel (hydroxypropylcellulose) (HPC) 95 % of control | [12] 109 % of control | [13] 100 % of control | dose: 400.0 mg/kg/injection, schedule: Q01DX001 (ip), vehicle: Klucel (hydroxypropylcellulose) (HPC) 100 % of control | [14] 109 % of control | [15] 95 % of control

COc1cc(OC)cc(-c2n[se]c(-c3cc(OC)cc(OC)c3)n2)c1
inactive: dose: 0.19 mg/kg/injection, schedule: Q01DX009 (ip), vehicle: saline with Tween-80 114 % of control | dose: 0.39 mg/kg/injection, schedule: Q01DX009 (ip), vehicle: saline with Tween-80 98 % of control | dose: 0.78 mg/kg/injection, schedule: Q01DX009 (ip), vehicle: saline with Tween-80 104 % of control | dose: 1.56 mg/kg/injection, schedule: Q01DX009 (ip), vehicle: saline with Tween-80 107 % of control
